# Biological target: T1, human FFAR1 (GPR40) (Homo sapiens, UniProt O14842)
# T1 construct: Flag; expressed in transfected cells; host or cells: HEK293T
# Experiment: NFAT-RE-based reporter gene activity assay (Dual-Glo luciferase) for GPR40 agonistic activity in co-transfected HEK293T cells
# Assay type: cell-based
# Details: 4-hour treatment
# Outline: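 HEK293T cells co-transfected with human FFAR1, NFAT-RE firefly luciferase and TK-Renilla plasmids; 24 h later treated 4 h with 10 half-log compound dilutions from 1 µM. Firefly/Renilla ratio normalised to DMSO; EC50 from four-parameter fit.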
# [1] = numeric values of positive controls
# T1 sequence (O14842 whole entry): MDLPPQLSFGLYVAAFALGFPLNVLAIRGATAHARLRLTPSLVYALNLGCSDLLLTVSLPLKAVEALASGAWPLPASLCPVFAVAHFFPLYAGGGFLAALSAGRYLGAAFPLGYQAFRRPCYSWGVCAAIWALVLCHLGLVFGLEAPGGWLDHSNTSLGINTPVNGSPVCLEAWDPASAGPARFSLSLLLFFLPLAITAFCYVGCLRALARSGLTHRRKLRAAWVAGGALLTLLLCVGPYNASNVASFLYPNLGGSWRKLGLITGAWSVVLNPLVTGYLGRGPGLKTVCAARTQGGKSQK
SMILES,EC50 [nM],Efficacy (%) (class symbols),Efficacy (%) [1] [%]
COc1cccc(N2CCC(c3oc4cc([C@@H](CC(=O)O)C5CC5)ccc4c3C3OCC(C)(C)CO3)CC2)c1 [Compound 399],100 to 500,†† (150 ≥ Efficacy (%) > 100),
COc1cccc(N2CCC(c3oc4cc(C(CC(=O)O)C5CC5)ccc4c3C3O[C@@H](C)[C@H](C)O3)CC2)c1 (stereo partly drawn) [Compound 400],100 to 500,† (100 ≥ Efficacy (%) > 50),
COc1cccc(N2CCC(c3oc4cc([C@@H](CC(=O)O)C5CC5)ccc4c3COc3ccccc3)CC2)c1 [Compound 404],100 to 500,†† (150 ≥ Efficacy (%) > 100),
COc1cccc(N2CCC(c3oc4cc([C@@H](CC(=O)O)C5CC5)ccc4c3C(C)OC)CC2)c1 (stereo partly drawn) [Compound 406],100 to 500,††† (Efficacy (%) > 150),
CCOC(C)c1c(C2CCN(c3cccc(OC)c3)CC2)oc2cc([C@@H](CC(=O)O)C3CC3)ccc12 (stereo partly drawn) [Compound 407],100 to 500,††† (Efficacy (%) > 150),
CCCOC(C)c1c(C2CCN(c3cccc(OC)c3)CC2)oc2cc([C@@H](CC(=O)O)C3CC3)ccc12 (stereo partly drawn) [Compound 408],100 to 500,††† (Efficacy (%) > 150),
COc1cccc(N2CCC(c3oc4cc([C@@H](CC(=O)O)C5CC5)ccc4c3C(C)OCC(C)C)CC2)c1 (stereo partly drawn) [Compound 409],10 to 100,††† (Efficacy (%) > 150),
CCCCOC(C)c1c(C2CCN(c3cccc(OC)c3)CC2)oc2cc([C@@H](CC(=O)O)C3CC3)ccc12 (stereo partly drawn) [Compound 410],100 to 500,††† (Efficacy (%) > 150),
COc1cccc(N2CCC(c3oc4cc([C@@H](CC(=O)O)C5CC5)ccc4c3C(C)OCC(C)(C)C)CC2)c1 (stereo partly drawn) [Compound 411],10 to 100,†† (150 ≥ Efficacy (%) > 100),
COc1cccc(N2CCC(c3oc4cc([C@@H](CC(=O)O)C5CC5)ccc4c3C(C)OCCC(C)(C)C)CC2)c1 (stereo partly drawn) [Compound 412],100 to 500,††† (Efficacy (%) > 150),
CCC(C)COC(C)c1c(C2CCN(c3cccc(OC)c3)CC2)oc2cc([C@@H](CC(=O)O)C3CC3)ccc12 (stereo partly drawn) [Compound 413],100 to 500,††† (Efficacy (%) > 150),
COc1cccc(N2CCC(c3oc4cc([C@@H](CC(=O)O)C5CC5)ccc4c3C(C)OCC[C@@H](C)CCCC(C)C)CC2)c1 (stereo partly drawn) [Compound 414],> 500,††† (Efficacy (%) > 150),
COc1cccc(N2CCC(c3oc4cc([C@@H](CC(=O)O)C5CC5)ccc4c3C(C)OCC[C@@H](C)CCC=C(C)C)CC2)c1 (stereo partly drawn) [Compound 415],> 500,††† (Efficacy (%) > 150),
CCC(OCC(C)(C)C)c1c(C2CCN(c3cccc(OC)c3)CC2)oc2cc([C@@H](CC(=O)O)C3CC3)ccc12 (stereo partly drawn) [Compound 416],10 to 100,†† (150 ≥ Efficacy (%) > 100),
COc1cccc(N2CCC(c3oc4cc([C@@H](CC(=O)O)C5CC5)ccc4c3C(C)OCC3CC3)CC2)c1 (stereo partly drawn) [Compound 417],100 to 500,††† (Efficacy (%) > 150),
COc1cccc(N2CCC(c3oc4cc([C@@H](CC(=O)O)C5CC5)ccc4c3C(C)OCC3CCC3)CC2)c1 (stereo partly drawn) [Compound 418],10 to 100,††† (Efficacy (%) > 150),
COc1cccc(N2CCC(c3oc4cc([C@@H](CC(=O)O)C5CC5)ccc4c3C(C)OCC3CCCC3)CC2)c1 (stereo partly drawn) [Compound 419],10 to 100,††††,
COc1cccc(N2CCC(c3oc4cc([C@@H](CC(=O)O)C5CC5)ccc4c3C(C)OCc3ccco3)CC2)c1 (stereo partly drawn) [Compound 420],100 to 500,†† (150 ≥ Efficacy (%) > 100),
COc1cccc(N2CCC(c3oc4cc([C@@H](CC(=O)O)C5CC5)ccc4c3C(C)OCc3cccs3)CC2)c1 (stereo partly drawn) [Compound 421],100 to 500,††† (Efficacy (%) > 150),
COc1cccc(N2CCC(c3oc4cc([C@@H](CC(=O)O)C5CC5)ccc4c3C(O)C(C)(C)C)CC2)c1 (stereo partly drawn) [Compound 423],100 to 500,† (100 ≥ Efficacy (%) > 50),
COc1cccc(N2CCC(c3oc4cc([C@@H](CC(=O)O)C5CC5)ccc4c3C(O)c3ccccc3)CC2)c1 (stereo partly drawn) [Compound 424],> 500,†† (150 ≥ Efficacy (%) > 100),

SMILES,EC50 [nM],Efficacy (%) (class symbols),Efficacy (%) [1] [%]
COc1cccc(N2CCC(c3oc4cc([C@@H](CC(=O)O)C5CC5)ccc4c3C(OC)c3ccccc3)CC2)c1 (stereo partly drawn) [Compound 425],100 to 500,†† (150 ≥ Efficacy (%) > 100),
COc1cccc(N2CCC(c3oc4cc([C@@H](CC(=O)O)C5CC5)ccc4c3C(OCC(C)C)c3ccccc3)CC2)c1 (stereo partly drawn) [Compound 426],10 to 100,††† (Efficacy (%) > 150),
COc1cccc(N2CCC(c3oc4cc([C@@H](CC(=O)O)C5CC5)ccc4c3C(OCC(C)C)c3ccc(C)cc3)CC2)c1 (stereo partly drawn) [Compound 427],100 to 500,††† (Efficacy (%) > 150),
COc1cccc(N2CCC(c3oc4cc([C@@H](CC(=O)O)C5CC5)ccc4c3C(OCC(C)C)c3cccc(C)c3)CC2)c1 (stereo partly drawn) [Compound 428],100 to 500,†† (150 ≥ Efficacy (%) > 100),
COc1cccc(N2CCC(c3oc4cc([C@@H](CC(=O)O)C5CC5)ccc4c3C(OCC(C)C)c3ccccc3C)CC2)c1 (stereo partly drawn) [Compound 429],100 to 500,††† (Efficacy (%) > 150),
COc1cccc(N2CCC(c3oc4cc([C@@H](CC(=O)O)C5CC5)ccc4c3C(OCC(C)C)c3cccc(F)c3)CC2)c1 (stereo partly drawn) [Compound 430],100 to 500,††† (Efficacy (%) > 150),
COc1cccc(N2CCC(c3oc4cc([C@@H](CC(=O)O)C5CC5)ccc4c3C(OCC(C)C)c3ccc(F)cc3)CC2)c1 (stereo partly drawn) [Compound 431],100 to 500,†† (150 ≥ Efficacy (%) > 100),
COc1cccc(N2CCC(c3oc4cc([C@@H](CC(=O)O)C5CC5)ccc4c3C(OCC(C)C)c3ccccc3F)CC2)c1 (stereo partly drawn) [Compound 432],10 to 100,††† (Efficacy (%) > 150),
COc1cccc(N2CCC(c3oc4cc([C@@H](CC(=O)O)C5CC5)ccc4c3CNCC(C)(C)C)CC2)c1 [Compound 435],10 to 100,†† (150 ≥ Efficacy (%) > 100),
COc1cccc(N2CCC(c3oc4cc([C@@H](CC(=O)O)C5CC5)ccc4c3CNC(=O)C(C)(C)C)CC2)c1 [Compound 436],> 500,†† (150 ≥ Efficacy (%) > 100),
COc1cccc(N2CCC(c3oc4cc([C@@H](CC(=O)O)C5CC5)ccc4c3CN(C)CC(C)(C)C)CC2)c1 [Compound 438],10 to 100,†† (150 ≥ Efficacy (%) > 100),
COc1cccc(N2CCC(c3oc4cc([C@@H](CC(=O)O)C5CC5)ccc4c3C(C)N(C)CC(C)(C)C)CC2)c1 (stereo partly drawn) [Compound 439],100 to 500,†† (150 ≥ Efficacy (%) > 100),
COc1cccc(N2CCC(c3oc4cc([C@@H](CC(=O)O)C5CC5)ccc4c3CN(CC(C)(C)C)C(C)=O)CC2)c1 [Compound 442],100 to 500,†† (150 ≥ Efficacy (%) > 100),
COc1cccc(N2CCC(c3oc4cc([C@@H](CC(=O)O)C5CC5)ccc4c3CN(CC(C)(C)C)c3cccc(Cl)c3)CC2)c1 [Compound 447],100 to 500,†† (150 ≥ Efficacy (%) > 100),
COc1cccc(N2CCC(c3oc4cc([C@@H](CC(=O)O)C5CC5)ccc4c3CN(C(=O)C(C)(C)C)c3cccc(Cl)c3)CC2)c1 [Compound 448],100 to 500,†† (150 ≥ Efficacy (%) > 100),
COc1cccc(N2CCC(c3oc4cc(C(CC(=O)O)C5CC5)ccc4c3Cc3nnc(C(C)(C)C)o3)CC2)c1 (stereo not drawn) [Compound 450],100 to 500,† (100 ≥ Efficacy (%) > 50),
CCCCCCCC(C)(C)c1nnc(-c2c(C3CCN(c4cccc(OC)c4)CC3)oc3cc(C(CC(=O)O)C4CC4)ccc23)o1 (stereo not drawn) [Compound 451],10 to 100,†† (150 ≥ Efficacy (%) > 100),
CCCCCCC(C)(C)c1nnc(-c2c(C3CCN(c4cccc(OC)c4)CC3)oc3cc(C(CC(=O)O)C4CC4)ccc23)o1 (stereo not drawn) [Compound 452],10 to 100,†† (150 ≥ Efficacy (%) > 100),
"COc1ccc(C(=O)N(CC(C)(C)C)c2cccc(C)n2)c(N2CCC(COc3cc([C@@H](CC(=O)O)C4CC4)ccn3)CC2)c1 [SCO-267, SCO267, reference compound]",10 to 100,,100
"Cc1cc(OCCCS(C)(=O)=O)cc(C)c1-c1cccc(COc2ccc3c(c2)OC[C@H]3CC(=O)O)c1 [TAK875, reference compound]",,,65

# From EP4682145A1, “BENZOHETEROCYCLIC COMPOUND, AND PREPARATION METHOD THEREFOR AND USE THEREOF” (Cascade Pharmaceuticals, Inc., priority 2023, dated 2024)
